Experimental data from patent US20250214969A1, “PROTEIN DEGRADERS AND USES THEREOF” (Kymera Therapeutics, Inc., priority 2022, published 2025).

How the values were obtained:
[1] = target: T1, truncated His-MBP-Tev-KLHDC2 (residues 1-363) (Homo sapiens, UniProt Q9Y2U9); assay: KLHDC2 HTRF binding assay; conditions: 1 nM KLHDC2 (residues 1-363), fluorescein-labeled diglycine peptide probe
T1 construct: truncated His -MBP-Tev-KLHDC2 (residues 1-363) purified from E. coli; made in house; host or cells: E. coli
T1 sequence (Q9Y2U9 1-363): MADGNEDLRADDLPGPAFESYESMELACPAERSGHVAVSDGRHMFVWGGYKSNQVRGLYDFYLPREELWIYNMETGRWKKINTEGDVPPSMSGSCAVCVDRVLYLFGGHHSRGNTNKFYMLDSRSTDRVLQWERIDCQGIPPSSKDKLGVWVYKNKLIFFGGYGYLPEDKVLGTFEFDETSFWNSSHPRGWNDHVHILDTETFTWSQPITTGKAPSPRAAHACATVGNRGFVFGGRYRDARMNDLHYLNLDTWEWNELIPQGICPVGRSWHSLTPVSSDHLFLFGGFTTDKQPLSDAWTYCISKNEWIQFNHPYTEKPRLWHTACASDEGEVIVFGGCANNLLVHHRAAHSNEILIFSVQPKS

[2] = target: T1, truncated His-MBP-Tev-KLHDC2 (residues 1-363); assay: KLHDC2 FP competition binding assay; conditions: 15 nM KLHDC2 (residues 1-363), 10 nM fluorescein-labeled diglycine peptide probe, read-out: KLHDC2 binding Human FP: average external IC50

SMILES	IC50 [1]	IC50 [2]
COc1cc(-c2ccc(=O)n(CC(=O)O)c2)ccn1 [I-378]	> 5 µM	> 5 µM
O=C(O)Cn1cc(-c2cccc(Cl)c2)ccc1=O [I-375]	> 5 µM	> 5 µM
O=C(O)Cn1cc(NC(=O)COc2cccc3cnccc23)ccc1=O [I-251]	> 5 µM	> 5 µM
O=C(O)Cc1cccc(NC(=O)c2ccccc2)c1 [I-325]	> 5 µM	> 5 µM
COc1cccc(C2C(C(=O)O)CC(=O)N2C2CC2)c1 (stereo not drawn) [I-218]	> 5 µM	> 5 µM
O=C(O)Cn1cc(N2Cc3cccc(-c4cccnc4)c3C2=O)ccc1=O [I-80]	> 5 µM	> 5 µM
Cc1cc(OCc2ccccc2)ccc1-c1ccc(=O)n(CC(=O)O)c1 [I-366]	> 5 µM	> 5 µM
Nc1ccc(-c2ccc(=O)n(CC(=O)O)c2)cc1 [I-332]	> 5 µM	> 5 µM
O=C(O)Cn1cc(NC(=O)c2cccc(-c3ccccc3F)c2)ccc1=O [I-288]	> 5 µM	> 5 µM
NCCCCCCn1ccc2c(C(=O)Nc3ccc(=O)n(CC(=O)O)c3)cccc21 [I-137]	> 5 µM	> 5 µM
O=C(O)C1CC(=O)N(C2CCSc3ccccc32)C1 (stereo not drawn) [I-213]	> 5 µM	> 5 µM
CN(CC1(C(=O)Nc2ccc(=O)n(CC(=O)O)c2)CC1)c1cccnc1 [I-43]	> 5 µM	> 5 µM
CN(C)C(=O)c1ccc(-c2ccc(=O)n(CC(=O)O)c2)cc1Cl [I-388]	> 5 µM	> 5 µM
O=C(Nc1ccnc(C(=O)O)c1)c1cccc(-c2cccnc2)c1 [I-37]	> 5 µM	> 5 µM
O=C(O)Cn1cc(NC(=O)c2cccc(-c3cccc(F)c3)c2)ccc1=O [I-298]	> 5 µM	> 5 µM
O=C(O)Cn1cc(-c2cccc(CN3CCOCC3)c2)ccc1=O [I-304]	> 5 µM	> 5 µM

Further lines, results first:

IC50 [1]	IC50 [2]	SMILES
> 5 µM	> 5 µM	O=C(O)Cn1cc(CNC(=O)c2ccccc2)ccc1=O [I-299]
> 5 µM	> 5 µM	COc1cc(F)cc(-c2ccc(=O)n(CC(=O)O)c2)c1 [I-396]
0.5 to 5 µM	> 5 µM	O=C(O)Cn1cc(NC(=O)c2cccc(-c3cccnc3)n2)ccc1=O [I-141]
> 5 µM	> 5 µM	N#CCn1cc(NC(=O)c2cccc(-c3cccnc3)c2)ccc1=O [I-69]
> 5 µM	> 5 µM	COc1cc(C)c(-c2ccc(=O)n(CC(=O)O)c2)cc1C [I-359]
> 5 µM	> 5 µM	Cc1ccccc1OCC(=O)Nc1ccc(=O)n(CC(=O)O)c1 [I-266]
> 5 µM	> 5 µM	O=C(O)CN1CC(NC(=O)c2cccc(-c3ccccc3)c2)CCC1=O (stereo not drawn) [I-206]
0.05 to 0.5 µM	0.5 to 5 µM	O=C(O)Cn1cc(NC(=O)[C@H]2CCCN(c3cccnc3)C2)c(Cl)cc1=O [I-83]
> 5 µM	> 5 µM	C[C@@H](C(=O)O)n1cc(NC(=O)c2cccc(-c3cccnc3)c2)ccc1=O [I-71]
> 5 µM	> 5 µM	O=C(O)C1CC(=O)N(Cc2ccccn2)C1 (stereo not drawn) [I-230]
0.5 to 5 µM	0.5 to 5 µM	CC(C)c1ccc(C(=O)Nc2ccc(=O)n(CC(=O)O)c2)cc1-c1cccnc1 [I-174]
0.05 to 0.5 µM	0.05 to 0.5 µM	COc1cccc2c(N3CCC[C@H](C(=O)Nc4ccc(Cl)c(CC(=O)O)c4)C3)cncc12 [I-5]
0.5 to 5 µM	> 5 µM	O=C(O)Cn1cc(NC(=O)c2cccc(-c3cccnc3)c2C(F)(F)F)ccc1=O [I-10]
0.05 to 0.5 µM	0.5 to 5 µM	O=C(O)Cn1cc(NC(=O)c2cc(-c3cccnc3)ccn2)ccc1=O [I-142]
0.5 to 5 µM	0.5 to 5 µM	COc1cc(-c2ccccc2)ccc1C(=O)Nc1ccc(=O)n(CC(=O)O)c1 [I-203]
0.5 to 5 µM	> 5 µM	O=C(Nc1ccc(=O)n([C@@H](F)C(=O)O)c1)c1cccc(-c2cccnc2)c1 [I-51]
0.5 to 5 µM	> 5 µM	O=C(O)Cn1cc(NC(=O)c2ccc3cc(Cl)ccc3c2)ccc1=O [I-177]
